Among the data in ChEMBL document CHEMBL3352459, “Synthesis and evaluation of N-acyl-substituted 1,2-benzisothiazol-3-one derivatives as caspase-3 inhibitors” (Bioorg Med Chem, 2014) are IC50 and Activity values, retold here.

Residues, ends and D or L forms follow the SMILES beside them. *: point of attachment. Cbz = O=C(OCc1ccccc1)*; CH2F = FC*

In one experiment the target is T1, Caspase-7 (Homo sapiens, UniProt P55210).
T1 sequence (P55210 whole entry): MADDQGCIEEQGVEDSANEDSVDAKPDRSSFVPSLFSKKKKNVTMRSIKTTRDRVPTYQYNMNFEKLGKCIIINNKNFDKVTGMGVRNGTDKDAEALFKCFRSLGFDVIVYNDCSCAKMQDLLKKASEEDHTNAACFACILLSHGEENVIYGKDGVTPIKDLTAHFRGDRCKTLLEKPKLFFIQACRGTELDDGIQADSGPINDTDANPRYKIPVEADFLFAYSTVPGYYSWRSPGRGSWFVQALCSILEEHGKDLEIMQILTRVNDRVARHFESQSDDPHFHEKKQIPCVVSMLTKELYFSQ
Description: Inhibition of recombinant human caspase-7 activity using Ac-DEVD-AMC as substrate preincubated for 10 mins by fluorescence assay.

For another experiment, the target named is T2, Caspase-3 (Homo sapiens, UniProt P42574).
T2 sequence (P42574 whole entry): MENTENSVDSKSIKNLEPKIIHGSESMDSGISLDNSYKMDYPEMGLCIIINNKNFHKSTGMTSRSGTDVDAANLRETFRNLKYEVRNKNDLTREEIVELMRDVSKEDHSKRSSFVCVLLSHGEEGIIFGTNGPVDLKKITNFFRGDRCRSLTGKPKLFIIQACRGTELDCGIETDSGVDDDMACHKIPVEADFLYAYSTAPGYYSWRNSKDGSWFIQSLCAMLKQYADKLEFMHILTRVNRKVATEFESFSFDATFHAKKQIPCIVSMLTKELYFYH
Description: Inhibition of recombinant human caspase-3 activity using Ac-DEVD-AMC as substrate preincubated for 10 mins by fluorescence assay.

In experiment [1] the test system is Jurkat. The experiment can be described thus: Antiapoptotic activity in camptothecin-induced human Jurkat cells assessed as apoptotic cells at 50 uM after 2 hrs using Annexin V-FITC and 7-AAD by flow cytometry relative to control. The class given is functional. (In general: Flow cytometry measures light scatter and fluorescence of single cells or particles in a stream.)

Experiment [2] concerns Jurkat. The experiment can be described thus: Antiapoptotic activity in camptothecin-induced human Jurkat cells assessed as apoptotic cells at 10 uM after 2 hrs using Annexin V-FITC and 7-AAD by flow cytometry relative to control. Type of experiment: functional.

On to `O=C(Nc1ccc(N2CCOCC2)cc1)n1sc2ccccc2c1=O`, for which the IC50 (commonly the concentration that inhibits the measured activity by half) was found to be 0.164 µM at Caspase-7 and 0.106 µM on Caspase-3.
As for `O=C(Cc1ccccc1)n1sc2ccccc2c1=O`, the results for the IC50 at Caspase-7 and at Caspase-3 were 0.269 µM and 0.292 µM, respectively.
Consider `Cc1ccccc1CC(=O)n1sc2ccccc2c1=O`, for which the IC50 at Caspase-7 was determined as 0.37 µM; on Caspase-3, 0.2 µM.
In the same order, the values of `Cc1cccc(CC(=O)n2sc3ccccc3c2=O)c1` are 0.184 µM and 0.339 µM.
For the molecule `Cc1ccc(CC(=O)n2sc3ccccc3c2=O)cc1`, the IC50 at Caspase-7 worked out at 0.182 µM; at Caspase-3, 0.214 µM.
Take `COc1ccccc1CC(=O)n1sc2ccccc2c1=O`: the IC50 on Caspase-7 was determined as 0.207 µM; at Caspase-3, 0.219 µM.
On the same counts, the results for `COc1cccc(CC(=O)n2sc3ccccc3c2=O)c1` are 0.211 µM and 0.548 µM.
Take `COc1ccc(CC(=O)n2sc3ccccc3c2=O)cc1`: the IC50 turned out to be 0.213 µM on Caspase-7 and 1.34 µM at Caspase-3.
Turning to `O=C(Cc1ccccc1F)n1sc2ccccc2c1=O`, the IC50 at Caspase-7 is 0.123 µM; on Caspase-3 it was 0.186 µM.
Turning to `O=C(Cc1cccc(F)c1)n1sc2ccccc2c1=O`, the values for the IC50 at Caspase-7 and on Caspase-3 were 0.458 µM and 0.899 µM, respectively.
On the same counts, the results for `O=C(Cc1ccc(F)cc1)n1sc2ccccc2c1=O` are 0.608 µM and 1.2 µM.
In the case of `O=C(Cc1ccccc1Cl)n1sc2ccccc2c1=O`, the IC50 at Caspase-7 amounted to 0.145 µM; at Caspase-3, 0.193 µM.
On to `O=C(Cc1cccc(Cl)c1)n1sc2ccccc2c1=O`, for which the half-maximal inhibitory concentration (IC50) on Caspase-7 worked out at 0.607 µM; at Caspase-3 it was 0.272 µM.
As for `O=C(Cc1ccc(Cl)cc1)n1sc2ccccc2c1=O`, the results for the IC50 on Caspase-7 and on Caspase-3 were 0.586 µM and 0.215 µM, respectively.
As for `O=C(Cc1ccc(O)cc1)n1sc2ccccc2c1=O`, the values for the IC50 on Caspase-7 and on Caspase-3 were 0.33 µM and 0.326 µM, respectively.
For `O=C(Cc1ccc(Cl)c(Cl)c1)n1sc2ccccc2c1=O`, the IC50 amounted to 0.198 µM on Caspase-7 and 0.654 µM on Caspase-3.
In the same order, the values of `O=C(CCc1ccccc1)n1sc2ccccc2c1=O` are 0.112 µM and 0.108 µM.
As to `Cc1cccc(CCC(=O)n2sc3ccccc3c2=O)c1`, the 50% inhibitory concentration (IC50) at Caspase-7 was found to be 0.109 µM; on Caspase-3, 0.095 µM.
On the same counts, the results for `Cc1ccc(CCC(=O)n2sc3ccccc3c2=O)cc1` are 0.0725 µM and 0.119 µM.
In the same order, the values of `COc1ccccc1CCC(=O)n1sc2ccccc2c1=O` are 0.0637 µM and 0.137 µM.
Regarding `COc1cccc(CCC(=O)n2sc3ccccc3c2=O)c1`, the values for the IC50 at Caspase-7 and on Caspase-3 were 0.054 µM and 0.0349 µM, respectively. Further, the Activity in the experiment with Jurkat [1] is 100%; in the experiment with Jurkat [2], 36.6%.
As to `COc1ccc(CCC(=O)n2sc3ccccc3c2=O)cc1`, the IC50 at Caspase-7 is 0.0519 µM; on Caspase-3 it was 0.0497 µM. The figures for the Activity with Jurkat [1] and in the experiment on Jurkat [2] were 100% and 37.5%, respectively.
Regarding `O=C(CCc1ccccc1F)n1sc2ccccc2c1=O`, the IC50 on Caspase-7 was 0.0869 µM; at Caspase-3, 0.13 µM.
For the molecule `O=C(CCc1cccc(F)c1)n1sc2ccccc2c1=O`, the IC50 amounted to 0.0784 µM on Caspase-7 and 0.0877 µM at Caspase-3.
For `O=C(CCc1ccc(F)cc1)n1sc2ccccc2c1=O`, the IC50 worked out at 0.0597 µM on Caspase-7 and 0.112 µM on Caspase-3.
Take `O=C(CCc1ccccc1Cl)n1sc2ccccc2c1=O`: the IC50 is 0.158 µM on Caspase-7 and 0.0473 µM on Caspase-3.
As to `O=C(CCc1ccc(Cl)cc1)n1sc2ccccc2c1=O`, the 50% inhibitory concentration (IC50) on Caspase-7 is 0.0727 µM; on Caspase-3, 0.0569 µM.
`O=C(CCCc1ccccc1)n1sc2ccccc2c1=O`: the results for the IC50 on Caspase-7 and on Caspase-3 were 0.166 µM and 0.182 µM, respectively.
Take `Cc1ccc(CCCC(=O)n2sc3ccccc3c2=O)cc1`: the figures for the IC50 on Caspase-7 and on Caspase-3 were 0.0979 µM and 0.266 µM, respectively.
As for `COc1ccc(CCCC(=O)n2sc3ccccc3c2=O)cc1`, the IC50 on Caspase-7 is 0.0749 µM; at Caspase-3, 0.39 µM.
In the same order, the values of `O=C(CCCCc1ccccc1)n1sc2ccccc2c1=O` are 0.101 µM and 0.306 µM.
For the molecule `O=C(Cc1cccs1)n1sc2ccccc2c1=O`, the IC50 at Caspase-7 was 18.1 µM; on Caspase-3, 32.2 µM.
Turning to `O=C(CCC(=O)n1sc2ccccc2c1=O)c1cccs1`, the IC50 at Caspase-7 amounted to 0.0567 µM; on Caspase-3, 0.235 µM.
As for `O=C(CCCc1cccs1)n1sc2ccccc2c1=O`, the IC50 on Caspase-7 worked out at 0.115 µM; at Caspase-3 it was 0.127 µM.
In the same order, the values of `O=C(Cc1ccc(-c2ccccc2)cc1)n1sc2ccccc2c1=O` are 0.115 µM and 0.141 µM.
For the molecule `O=C(Cc1ccc2ccccc2c1)n1sc2ccccc2c1=O`, the results for the IC50 at Caspase-7 and at Caspase-3 were 0.297 µM and 0.265 µM, respectively.
With `O=C(Cc1ccc2c(c1)CCO2)n1sc2ccccc2c1=O`, the IC50 at Caspase-7 stood at 0.185 µM; at Caspase-3, 0.222 µM.
As to `CC(=O)N[C@@H](CC(=O)O)C(=O)N[C@@H](CCC(=O)O)C(=O)N[C@H](C(=O)N[C@H](C=O)CC(=O)O)C(C)C`, the IC50 on Caspase-7 worked out at 0.155 µM.
For the molecule `COC(=O)C[C@H](NC(=O)[C@H](C)NC(=O)[C@@H](NC(=O)OCc1ccccc1)C(C)C)C(=O)CF` (Cbz-Val-Ala-Asp(OMe)-CH2F), the Activity in the experiment on Jurkat [2] was found to be 40.2%.
